Structures can show the parent of a compound that is named as a salt.
Experiments:
[1] = stability on storage for a long time under usual conditions; format: physicochemical
β-amyloid protein = test: action of inhibiting the production and secretion of β-amyloid protein

stability (denaturation after storage) [1]: very excellent in stability
transfer to the brain (transfer to the brain): excellent in transfer to the brain
Structure (SMILES): CN(C)CC[C@@H]1CCc2cc(OCc3ccc(-c4ccccc4)cc3)ccc2C1 [Compound (V′), (R)-(+)-6-(4-biphenylyl)methoxy-2-[2-(N,N-dimethylamino)ethyl]tetralin hydrochloride monohydrate]
action of inhibiting the production and secretion of β-amyloid protein (β-amyloid protein): excellent
toxicity (toxicity): low toxic
